The record followed here is PubChem BioAssay AID342 (DTP/NCI, 2004).

The test system of the assay is Swiss mice, Sarcoma 180 sc, mean tumor weight T/C. Put plainly: NCI In Vivo Anticancer Drug Screen. Data for tumor model Sarcoma 180 (subcutaneous) in Swiss mice. As to conditions: endpoint: mean tumor weight, higher = larger tumour. Summed up: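 Transplantable tumors were established in mice, compound was given, then survival or tumor size was recorded. The treated value was divided by the vehicle-control value.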

Values joined by “and” are separate entries in the source; they are usually repeats but may differ in a detail not shown here. Equal values may be shown once.

As a reminder, the T/C is the ratio of treated to control. For `C[C@]12CC[C@@H]3c4ccc(OC(=O)c5ccccc5)cc4CC[C@H]3[C@@H]1CC[C@@H]2O`, the T/C (dose: 125.0 mg/kg/injection, schedule: Q01DX007 (sc), vehicle: steriod suspending solution) was 47 % of control; the T/C (dose: 250.0 mg/kg/injection, schedule: Q01DX007 (sc), vehicle: steriod suspending solution) was 55 % of control; the T/C (dose: 400.0 mg/kg/injection, schedule: Q01DX007 (sc), vehicle: steriod suspending solution) was 58 % of control and 83 % of control; the T/C (dose: 666.0 mg/kg/injection, schedule: Q01DX007 (sc), vehicle: steriod suspending solution) was 59 % of control and 62 % of control.

As to `CC(=O)OCC(=O)[C@@]1(O)CC[C@H]2[C@@H]3C[C@@H](C)C4=CC(=O)C=C[C@]4(C)[C@H]3[C@@H](O)C[C@@]21C`, the T/C was 51 % of control (dose: 32.0 mg/kg/injection, schedule: Q01DX007 (sc), vehicle: steriod suspending solution); 56 % of control (dose: 49.0 mg/kg/injection, schedule: Q01DX007 (sc), vehicle: steriod suspending solution); 40 % of control and 55 % of control (dose: 73.0 mg/kg/injection, schedule: Q01DX007 (sc), vehicle: steriod suspending solution); 48 % of control (dose: 109.0 mg/kg/injection, schedule: Q01DX007 (sc), vehicle: steriod suspending solution); 31 % of control (dose: 111.0 mg/kg/injection, schedule: Q01DX007 (sc), vehicle: steriod suspending solution); 36 % of control and 47 % of control (dose: 165.0 mg/kg/injection, schedule: Q01DX007 (sc), vehicle: steriod suspending solution). The T/C was 35 % of control (dose: 248.0 mg/kg/injection, schedule: Q01DX007 (sc), vehicle: steriod suspending solution); 33 % of control (dose: 251.0 mg/kg/injection, schedule: Q01DX007 (sc), vehicle: steriod suspending solution); 31 % of control (dose: 375.0 mg/kg/injection, schedule: Q01DX007 (sc), vehicle: steriod suspending solution).

With `Nc1c(Br)cc2c(c1Br)Cc1cc(Cl)ccc1-2`, the T/C by setting is: (dose: 27.0 mg/kg/injection, schedule: Q01DX007 (ip), vehicle: other) 52 % of control; (dose: 41.0 mg/kg/injection, schedule: Q01DX007 (ip), vehicle: other) 44 % of control; (dose: 62.0 mg/kg/injection, schedule: Q01DX007 (ip), vehicle: other) 60 % of control.

For `CN(CC(=O)O)C(=N)N`, the T/C reads like this: (dose: 1500.0 mg/kg/injection, schedule: Q#A X014 (ip), vehicle: water) 92 % of control; (dose: 2500.0 mg/kg/injection, schedule: Q#A X014 (ip), vehicle: water) 74 % of control.

On to `NNc1nncc2ccccc12`, for which the T/C (dose: 37.5 mg/kg/injection, schedule: Q01DX007 (ip), vehicle: carboxymethylcellulose (CMC)) is 116 % of control and the T/C (dose: 75.0 mg/kg/injection, schedule: Q01DX007 (ip), vehicle: carboxymethylcellulose (CMC)) was 100 % of control.

Regarding `Nc1ccn(C2OC(CO)C(O)C2O)c(=O)n1` (configuration not stated), the T/C (dose: 8.0 mg/kg/injection, schedule: Q01DX007 (ip), vehicle: saline) was 47 % of control and 51 % of control; the T/C (dose: 12.0 mg/kg/injection, schedule: Q01DX007 (ip), vehicle: saline) was 61 % of control and 70 % of control; the T/C (dose: 27.0 mg/kg/injection, schedule: Q01DX007 (ip), vehicle: saline) is 51 % of control and 73 % of control; the T/C (dose: 40.0 mg/kg/injection, schedule: Q01DX007 (ip), vehicle: saline) is 37 % of control and 46 % of control; the T/C (dose: 60.0 mg/kg/injection, schedule: Q01DX007 (ip), vehicle: saline) was 13 % of control and 16 % of control; the T/C (dose: 90.0 mg/kg/injection, schedule: Q01DX007 (ip), vehicle: saline) was 10 % of control.

Turning to `O=C(Nc1ccc(Sc2ccc(N=Nc3c(O)c(S(=O)(=O)O)cc4cc(S(=O)(=O)O)ccc34)cc2)cc1)c1ccc(N=Nc2ccc3c(S(=O)(=O)O)cccc3c2O)cc1`, the T/C was 68 % of control and 78 % of control (dose: 55.0 mg/kg/injection, schedule: Q01DX007 (ip), vehicle: carboxymethylcellulose (CMC)); 72 % of control and 75 % of control (dose: 84.0 mg/kg/injection, schedule: Q01DX007 (ip), vehicle: carboxymethylcellulose (CMC)); 28 % of control (dose: 125.0 mg/kg/injection, schedule: Q01DX007 (ip), vehicle: carboxymethylcellulose (CMC)); 25 % of control (dose: 188.0 mg/kg/injection, schedule: Q01DX007 (ip), vehicle: carboxymethylcellulose (CMC)).

For the molecule `Cc1ncc([N+](=O)[O-])n1CCCl`, the T/C (dose: 62.5 mg/kg/injection, schedule: Q01DX007 (ip), vehicle: saline) was 108 % of control and the T/C (dose: 250.0 mg/kg/injection, schedule: Q01DX007 (ip), vehicle: saline) was 78 % of control.

For the molecule `C=CC(CN1CC1)OC(C)=O` (configuration not stated), the T/C is 94 % of control (dose: 0.88 mg/kg/injection, schedule: Q01DX007 (ip), vehicle: carboxymethylcellulose (CMC)); 68 % of control (dose: 1.25 mg/kg/injection, schedule: Q01DX007 (ip), vehicle: carboxymethylcellulose (CMC)); 97 % of control (dose: 1.75 mg/kg/injection, schedule: Q01DX007 (ip), vehicle: carboxymethylcellulose (CMC)); 58 % of control (dose: 2.3 mg/kg/injection, schedule: Q01DX007 (ip), vehicle: carboxymethylcellulose (CMC)); 56 % of control (dose: 3.5 mg/kg/injection, schedule: Q01DX007 (ip), vehicle: carboxymethylcellulose (CMC)); 50 % of control (dose: 7.0 mg/kg/injection, schedule: Q01DX007 (ip), vehicle: carboxymethylcellulose (CMC)).

As for `NC1(C(=O)OCc2ccccc2)CCCC1`, the T/C is 87 % of control (dose: 50.0 mg/kg/injection, schedule: Q01DX007 (ip), vehicle: carboxymethylcellulose (CMC)); 76 % of control (dose: 100.0 mg/kg/injection, schedule: Q01DX007 (ip), vehicle: carboxymethylcellulose (CMC)); 66 % of control (dose: 200.0 mg/kg/injection, schedule: Q01DX007 (ip), vehicle: carboxymethylcellulose (CMC)); 64 % of control (dose: 333.0 mg/kg/injection, schedule: Q01DX007 (ip), vehicle: carboxymethylcellulose (CMC)); 47 % of control (dose: 400.0 mg/kg/injection, schedule: Q01DX007 (ip), vehicle: carboxymethylcellulose (CMC)); 36 % of control (dose: 500.0 mg/kg/injection, schedule: Q01DX007 (ip), vehicle: carboxymethylcellulose (CMC)). Moreover, the T/C is 55 % of control (dose: 750.0 mg/kg/injection, schedule: Q01DX007 (ip), vehicle: carboxymethylcellulose (CMC)) and 25 % of control (dose: 800.0 mg/kg/injection, schedule: Q01DX007 (ip), vehicle: carboxymethylcellulose (CMC)).

With `COc1ccc(C(=O)/C(Br)=C/C(=O)O)cc1`, the T/C was 99 % of control (dose: 6.25 mg/kg/injection, schedule: Q01DX007 (ip), vehicle: water); 82 % of control (dose: 12.5 mg/kg/injection, schedule: Q01DX007 (ip), vehicle: water); 108 % of control (dose: 25.0 mg/kg/injection, schedule: Q01DX007 (ip), vehicle: water).

Take `O=CNc1c(Cl)c(Cl)c2c(c1Cl)Cc1cc(Cl)ccc1-2`: the T/C runs as follows: (dose: 5.0 mg/kg/injection, schedule: Q01DX007 (ip), vehicle: carboxymethylcellulose (CMC)) 70 % of control; (dose: 15.0 mg/kg/injection, schedule: Q01DX007 (ip), vehicle: carboxymethylcellulose (CMC)) 60 % of control; (dose: 30.0 mg/kg/injection, schedule: Q01DX007 (ip), vehicle: carboxymethylcellulose (CMC)) 34 % of control; (dose: 49.0 mg/kg/injection, schedule: Q01DX007 (ip), vehicle: carboxymethylcellulose (CMC)) 63 % of control; (dose: 73.0 mg/kg/injection, schedule: Q01DX007 (ip), vehicle: carboxymethylcellulose (CMC)) 64 % of control; (dose: 110.0 mg/kg/injection, schedule: Q01DX007 (ip), vehicle: carboxymethylcellulose (CMC)) 51 % of control. Besides, the T/C (dose: 165.0 mg/kg/injection, schedule: Q01DX007 (ip), vehicle: carboxymethylcellulose (CMC)) is 5 % of control.

Take `CC(C)OC(=O)C1(N)CCCC1`: the T/C by setting is: (dose: 33.0 mg/kg/injection, schedule: Q#A X014 (ip), vehicle: saline) 61 % of control; (dose: 50.0 mg/kg/injection, schedule: Q#A X014 (ip), vehicle: saline) 67 % of control; (dose: 75.0 mg/kg/injection, schedule: Q#A X014 (ip), vehicle: saline) 49 % of control; (dose: 112.5 mg/kg/injection, schedule: Q#A X014 (ip), vehicle: saline) 20 % of control.

On to `CCCOC(=O)C1(N)CCCC1`, for which the T/C runs as follows: (dose: 148.0 mg/kg/injection, schedule: Q01DX007 (ip), vehicle: saline) 42 % of control; (dose: 225.0 mg/kg/injection, schedule: Q01DX007 (ip), vehicle: saline) 28 % of control.
